Assay results reported in patent US7105576B2, “Synergistic effects of nuclear transcription factor NF-κB inhibitors and anti-neoplastic agents” (priority 2002, dated 2006).

Columns and labels:
NF-κB [1] = assay: EMSA of paclitaxel-induced NF-κB activation in MCF-7 cells; type: cell-based, human; conditions: curcumin pretreatment 2 h, then taxol 30 μM 12 hrs, EMSA of nuclear extract
Method: Nuclear extract was prepared and EMSA performed using 8 μg of nuclear protein. […] The nuclear extracts were prepared and analyzed by EMSA. The specificity of NF-κB can be examined by supershift analysis using antibodies against p50 and p65 subunits of NF-κB as described (109).

NF-κB [2] = assay: EMSA of TNF-dependent NF-κB activation in MDA-MB 435 cells; type: cell-based, human; conditions: curcumin 0 to 50 μM 4 h, then 0.1 nM TNF 30 min
Method: MCF-7 cells treated with 0 and 0.1 nM TNF was included as negative and positive control. […] The nuclear extracts were prepared and analyzed by EMSA. The specificity of NF-κB can be examined by supershift analysis using antibodies against p50 and p65 subunits of NF-κB as described (109).

MCF-7 cells = assay: Cell viability by the MTT method; type: cell-based, human; conditions: taxol 10 μM with or without curcumin 10 μM, 72 h
[3] = system: MDA-MB-435 breast cancer cells; assay: Breast cancer metastasis after primary tumor removal, mammary fatpad xenograft; type: in vivo, female nude mice; conditions: for Incidence of macroscopic lung metastases / Median range of mets: 5 weeks after tumor removal; for Incidence of macroscopic lung metastases: paclitaxel 10 mg/kg i.p. day 10, 17, 24, 2% curcumin (w/w) diet; for Mean tumor Weight: MDA-MB-435 mammary fatpad tumors in nude mice; for Mean tumor Weight / Median range of mets: paclitaxel 10 mg/kg i.p., 2% curcumin diet; for Median range of mets: number of macroscopic lung metastases
Method: Human breast cancer cells (MDA-MB-231 or MDA-MB-435) that express constitutively active NF-κB can be injected into the mammary fatpad of female nude mice as previously described (127). […] Two millions MDA-MB-435 breast cancer cells were injected into the mammary fatpad of female nude mice. […] The treatment continue for up to 5 weeks after tumor removal, at which time the mice were killed and the number of visible metastases and presence of recurrent tumors or metastases in other organs were recorded. The lungs were fixed in 10% buffered formalin and paraffin-embedded section were stained with H&E to determine the incidence of micrometastases, or with antibodies recognizing the p65 subunit of NF-κB and HER2/neu. […] The significance of differences in the incidence of lung metastasis in the different groups was assessed using Fisher's exact test.

[4] = system: BT20, SKBR3, MCF-7, T47D, and ZR75-1; conditions: reference 63; cited from earlier work

Row | SMILES | paclitaxel-induced NF-κB induction (NF-κB [1]) | TNF-dependent NF-κB activation (NF-κB [2]) | cytotoxic effects of paclitaxel (cell viability, MTT) (MCF-7 cells) | Incidence of macroscopic lung metastases [3] [%] | Mean tumor Weight [3] [g] | effect on breast cancer metastases to the lung ([3]; mouse xenograft model, Table 1 and FIG. 5) | Median range of mets [3] | Growth of breast tumor cell lines [4]
1 | COc1cc(/C=C/C(=O)CC(=O)/C=C/c2ccc(O)c(OC)c2)ccc1O [Curcumin, diferuloylmethane] | downregulated paclitaxel-induced NF-κB induction in MCF-7 cells in a dose dependent manner | inhibited TNF-dependent NF-κB activation | enhances the cytotoxic effects of paclitaxel | 71 | 0.71 ± 0.3 | enhances the effect of paclitaxel and suppresses breast cancer metastases to the lung | 5 (0–44) | completely inhibited
2 | CC(=O)O[C@H]1C(=O)[C@@]2(C)[C@H]([C@H](OC(=O)c3ccccc3)[C@]3(O)C[C@H](OC(=O)[C@H](O)[C@@H](NC(=O)c4ccccc4)c4ccccc4)C(C)=C1C3(C)C)[C@]1(OC(C)=O)CO[C@@H]1C[C@@H]2O [paclitaxel, Paclitaxel] |  |  |  | 83 | 0.74 ± 0.4 |  | 20 (0–>100) | 
